The source of these data is patent US20230416258A1, “BENZ[…], AND PREPARATION METHOD THEREFOR AND USE THEREOF” (CHINA PHARMACEUTICAL UNIVERSITY, priority 2020, published 2023).

One series has as its system hCMEC/D3 cells. Description: Rate of drug passing through in vitro blood-brain barrier (Transwell). Format: in vitro ADME. The conditions noted are these: hCMEC/D3 monolayer, compound 0.1 mg/mL. As for the experimental part:
A Transwell device (pore size: 5.0 μm) was placed in a 24-well cell culture well; then hCMEC/D3 cells at 1×10^5 cells/mL were transferred to the upper microwells of Transwell at 150 μL/well, and cell culture medium was added to the lower microwells. After the bottom was covered by a single layer of the cells, the medium in the wells was replaced with EBM-2 complete medium containing 1% FBS, and the cells were cultured in a CO2 incubator for 10 days until a fully dense single layer of the cells was formed. When a fully dense single layer of the cells was formed, the compound at 0.1 mg/mL was added to the lower medium, and after 5 min, the concentration of the compound in the upper medium was measured to calculate the permeability:
Pcompound%=Cupper compound/Clower compound×100%

For series [1], the system named is GABA-activated Cl− current (GABAA receptor) in HEK 293T cells. Description: Effect of drugs on GABA-activated current in cells by cell patch clamp. Format: cell-based. Conditions: for Enhancement percentage Emax for 2 μM GABA current (within 3-30 μM): corresponding concentration 20 μM. As for the experimental part: Test compounds were dissolved at various concentrations in an extracellular buffer (140 mM NaCl, 4.7 mM KCl, 10 mM HEPES, 2 mM CaCl2), 10 mM glucose, 1 mM MgCl2, pH 7.4). HEK 293T cells were seeded on glass coverslips and cultured in DMEM media at 37° C. with 5% CO2 for 24 h. GABA Cl^− current was subjected to whole cell recording using an HEKA EPC 10USB patch clamp amplifier. 2 μM GABA was used for exciting Cl^− current, with the membrane potential clamped at −60 mV. The cells were treated with the test compound and 2 μM GABA simultaneously, and the induction effect on and Emax of Cl^− current in the same cell were recorded.
Maximum enhancement percentage Emax for 2 μM GABA current and corresponding concentration (μM): 100% for normal humans. The greater the percentage, the lower the corresponding concentration, and the greater the depth of anesthesia.

Series [2] can be described thus: In vitro plasma half-life of drug. Format: in vitro ADME, SD rats. Conditions: plasma (heparin sodium); SD rat plasma, 37° C. As for the experimental part:
Preparation of plasma: after the SD rats were fasted and kept with water for 12 h, blood was collected through orbital venous plexus. The freshly collected blood was added into a centrifuge tube containing heparin sodium and centrifuged at 5000 rpm for 10 min at 4° C. The supernatant was slowly pipetted and subpackaged. Finally, the collected SD rat plasma was sealed, marked, and stored at −20° C. for later use.
Preparation of target compound sample: the target compound was precisely weighed by an analytical balance and prepared into a stock solution at a concentration of 2 mg/mL (solvent: Vacetone:VTween 80:Vnormal saline=1:1:3) for later use.
Determination of in vitro half-life of target compound sample: 20 μL of test compound stock solution and 80 μL of rat plasma were mixed uniformly. Nine parallel ep tubes were taken, marked as corresponding test tubes of 0 min, 1 min, 2 min, 3 min, 5 min, 10 min, 15 min, 20 min, and 30 min, respectively, and placed in a water bath at 37° C. for incubation for 0 min, 1 min, 2 min, 3 min, 5 min, 10 min, 15 min, 20 min, and 30 min, respectively. 50 μL of mixed solution were taken from the corresponding ep tube at each time point, and […] of acetonitrile was added for precipitating protein. The mixture was vortexed for 10 min using a mixer and centrifuged at 12000 rpm for 15 min. Then, the supernatant was centrifuged at 12000 rpm for 10 min. The optimal detection method for the target compound in the MRM mode was determined using Intellistat software in UPLC-MS/MS, the peak area of the corresponding mass spectrum was integrated, and the plasma half-life of the compound was calculated.

In series [3] the test system is SD rats. Description: Induction of anesthesia in rats by continuous infusion of drug for 20 min. Format: in vivo. Conditions: initial dose 20 mg/kg bolus, maintenance dose 0.2 (mg/kg)/min for 20 min, after infusion completed. As for the experimental part: SD rats (male, 200-280 g) were randomly grouped and subjected to administration of an initial dose by rapid bolus via the tail vein, followed by a continuous infusion with a maintenance dose for 20 min.
After the infusion was completed, the duration of the righting reflex and the time from wake-up to recovery in rats were recorded.

Series [4] relates to SD rats. Description: Test for drug-induced disappearance of righting reflex in rats. Format: in vivo. The conditions noted are these: single rapid bolus via tail vein. The text has this:
In anesthetic drug experiments, latency generally refers to the time from the start of administration to the loss of consciousness of the subject. The shorter latency is preferred, indicating a rapid onset of action after administration. The duration of anesthesia generally refers to the duration of time from the loss of consciousness to the restoration of consciousness of the subject. The duration of the drug will vary from animal model to animal species. Too long anesthesia may produce adverse cardiovascular and respiratory responses, such as adverse neurological effects to the subject, including sleepiness and dizziness; meanwhile, too short duration of anesthesia may affect the anesthesia effect, causing problems such as increase of anesthesia dosage during the operation.
SD rats (male, 200-280 g) were randomly grouped and subjected to a single administration by rapid bolus via the tail vein. The latency and duration of righting reflex in the rats were recorded.

The next series relates to KM mice. Description: Test for drug-induced disappearance of righting reflex in mice. Conditions: single rapid bolus via tail vein. Format: in vivo. The method, boiled down:
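Latency to, and duration of, righting reflex loss were recorded after one fast tail-vein bolus. Animals: randomized female KM mice weighing 18–25 g.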

The mark [5] stands for this setting: read-out: Positive enhancement EC50 (μM) for 2 μM GABA-induced current, −60 mV.
The mark [6] stands for this setting: 2 μM GABA, −60 mV, read-out: Positive enhancement EC50 (μM) for 2 μM GABA-induced current.

Like-named read-outs stand apart in the source and are kept apart here.

For the molecule `COC(=O)CC[C@@H]1N=C(c2ccccc2Cl)c2cc(Br)ccc2-n2c(SC(C)=O)nnc21` [Compound 39, methyl (S)-3-(8-bromo-6-(2-chlorophenyl)-1-(acetylthio)-4H-benzo[f][1,2,4]triazolo[4,3-a][1,4]diazepin-4-yl)propionate], the “In vitro blood-brain barrier, compound permeability at 5 min” value (“In vitro blood-brain barrier” below) in the series on hCMEC/D3 cells was 82.6%. Further, the EC50 in series [1] (setting [5]) was 0.88 µM. Also, the “Enhancement percentage Emax for 2 μM GABA current (within 3-30 μM)” value (“Enhancement percentage Emax” below) in series [1] (−60 mV) is 272% (20 μM). In series [2], this molecule came in with a half-life at 0.4 mg/mL of 25.8 s. In addition, in the series with SD rats [3], the Duration of anesthesia came out at 7.86 min and the “Time from wake-up to recovery” value is 11.2 min. The Latency in the series on SD rats [4] is 0.38 min. In the series on KM mice (60 mg/kg), this molecule yielded a Duration of 9.67 min and a Latency of 0.19 min.
In the case of `COC(=O)CC[C@@H]1N=C(c2ccccc2F)c2cc(Br)ccc2-n2c(SCCN3CCOCC3)nnc21` [Compound 52, methyl (S)-3-(8-bromo-6-(2-fluorophenyl)-1-((2-morpholinoethyl)thio)-4H-benzo[f][1,2,4]triazolo[4,3-a][1,4]diazepin-4-yl)propionate], in the series on hCMEC/D3 cells, the “In vitro blood-brain barrier” value turned out to be 80.1%. For the same molecule, the EC50 in series [1] (setting [5]) worked out at 0.47 µM. Further, in series [1] (−60 mV), the “Enhancement percentage Emax” value is listed as 293% (20 μM). The half-life at 0.4 mg/mL in series [2] turned out to be 21.6 s. In the series with SD rats [3], the Duration of anesthesia turned out to be 6.25 min and the “Time from wake-up to recovery” value turned out to be 16.2 min. This molecule gave a Latency in the series on SD rats [4] of 0.33 min. In addition, in the series on KM mice (30 mg/kg), the Duration was 5.38 min and the Latency was found to be 1.3 min. In the series with KM mice (60 mg/kg), this molecule gave a Duration of 7.22 min and a Latency of 0.94 min.
In turn, `CCCSc1nnc2n1-c1ccc(Br)cc1C(c1ccccc1Cl)=N[C@H]2CCC(=O)OC` [Compound 30, methyl (S)-3-(8-bromo-6-(2-chlorophenyl)-1-(propylthio)-4H-benzo[f][1,2,4]triazolo[4,3-a][1,4]diazepin-4-yl)propionate] returned a half-life at 0.4 mg/mL in series [2] of 27 s. In the series with KM mice (30 mg/kg), this molecule registered a Duration of 7.44 min and a Latency of 0.42 min.
For `COC(=O)CC[C@@H]1N=C(c2ccccc2Cl)c2cc([N+](=O)[O-])ccc2-n2c(SCCN)nnc21` [Compound 37, methyl (S)-3-(8-nitro-6-(2-chlorophenyl)-1-((2-aminoethyl)thio)-4H-benzo[f][1,2,4]triazolo[4,3-a][1,4]diazepin-4-yl) propionate], the “In vitro blood-brain barrier” value in the series with hCMEC/D3 cells came to 84.6%. The EC50 in series [1] (setting [6]) is 0.53 µM. Also, the “Enhancement percentage Emax” value in series [1] (−60 mV) is listed as 267% (20 μM). For the same molecule, in the series on SD rats [3], the Duration of anesthesia amounted to 6.68 min and the “Time from wake-up to recovery” value is reported as 10.5 min. Further, in the series with SD rats [4], the Duration amounted to 25.1 min and the Latency came out at 0.22 min. Moreover, in the series with KM mice (30 mg/kg), the Duration is 7.63 min and the Latency worked out at 0.49 min. In the series with KM mice (60 mg/kg), this molecule came in with a Duration of 7.68 min and a Latency of 0.21 min.
Consider `COC(=O)CC[C@@H]1N=C(c2ccccc2Cl)c2cc(Cl)ccc2-n2c(SCCO)nnc21` [Compound 32, methyl (S)-3-(8-chloro-6-(2-chlorophenyl)-1-((2-hydroxyethyl)thio)-4H-benzo[f][1,2,4]triazolo[4,3-a][1,4]diazepin-4-yl)propionate], for which the half-life at 0.4 mg/mL in series [2] came out at 16.2 s. For the same molecule, in the series with KM mice (30 mg/kg), the Duration amounted to 20.73 min and the Latency is on record as 0.73 min.
As for `COC(=O)CC[C@@H]1N=C(c2ccccc2Cl)c2cc(Cl)ccc2-n2c(SCCN3CCCC3)nnc21` [Compound 119, methyl (S)-3-(8-chloro-6-(2-chlorophenyl)-1-(2-((pyrrolidin-1-yl)ethyl)thio)-4H-benzo[f][1,2,4]triazolo[4,3-a][1,4]diazepin-4-yl)propionate], in the series with hCMEC/D3 cells, the “In vitro blood-brain barrier” value turned out to be 83.3%. In addition, the EC50 in series [1] (setting [6]) stood at 0.43 µM. Further, in series [1] (−60 mV), the “Enhancement percentage Emax” value was 278% (20 μM). In the series on SD rats [3], the Duration of anesthesia worked out at 12.83 min and the “Time from wake-up to recovery” value worked out at 32.7 min. For the same molecule, in the series on SD rats [4], the Duration is listed as 13.27 min and the Latency came out at 0.43 min. In the series with KM mice (30 mg/kg), this molecule gave a Duration of 30.86 min and a Latency of 0.46 min.
`COC(=O)CC[C@@H]1N=C(c2ccccc2Cl)c2cc(Cl)ccc2-n2c(Sc3cn(C)cn3)nnc21` [Compound 141, methyl (S)-3-(8-chloro-6-(2-chlorophenyl)-1-((1-methyl-1H-imidazol-4-yl)thio)-4H-benzo[f][1,2,4]triazolo[4,3-a][1,4]diazepin-4-yl)propionate]: the “In vitro blood-brain barrier” value with hCMEC/D3 cells is recorded as 76.6%. The EC50 in series [1] (setting [5]) worked out at 0.61 µM. Moreover, in series [1] (−60 mV), the “Enhancement percentage Emax” value was 295% (20 μM). Also, in the series on SD rats [3], the Duration of anesthesia amounted to 13.21 min and the “Time from wake-up to recovery” value was determined as 22.19 min. Further, in the series on SD rats [4], the Latency was 0.21 min. In the series with KM mice (30 mg/kg), the Duration came to 8.76 min and the Latency amounted to 0.74 min.
For `CCSc1nnc2n1-c1ccc(Cl)cc1C(c1ccccc1Cl)=N[C@H]2CCC(=O)OC` [Compound 26, methyl (S)-3-(8-chloro-6-(2-chlorophenyl)-1-(ethylthio)-4H-benzo[f][1,2,4]triazolo[4,3-a][1,4]diazepin-4-yl)propionate], the “In vitro blood-brain barrier” value in the series with hCMEC/D3 cells is listed as 52.8%. The EC50 in series [1] (setting [5]) came to 0.71 µM. Moreover, the “Enhancement percentage Emax” value in series [1] (−60 mV) was 249% (20 μM). In addition, in the series with SD rats [3], the Duration of anesthesia is on record as 8.22 min and the “Time from wake-up to recovery” value is on record as 9.46 min. The same molecule yielded a Latency in the series with SD rats [4] of 0.36 min. For the same molecule, in the series with KM mice (30 mg/kg), the Duration worked out at 3.57 min and the Latency is reported as 1.5 min. Moreover, in the series on KM mice (60 mg/kg), the Duration was determined as 8.06 min and the Latency stood at 0.18 min.
Consider `COC(=O)CC[C@@H]1N=C(c2ccccc2F)c2cc([N+](=O)[O-])ccc2-n2c(SC)nnc21` [Compound 10, methyl (S)-3-(8-nitro-6-(2-fluorophenyl)-1-(methylthio)-4H-benzo[f][1,2,4]triazolo[4,3-a][1,4]diazepin-4-yl)propionate], for which, in the series with hCMEC/D3 cells, the “In vitro blood-brain barrier” value is recorded as 58.7%. The EC50 in series [1] (setting [5]) worked out at 0.67 µM. The “Enhancement percentage Emax” value in series [1] (−60 mV) is 202% (20 μM). For the same molecule, in the series with SD rats [3], the Duration of anesthesia came to 5.35 min and the “Time from wake-up to recovery” value amounted to 13.6 min. In the series on SD rats [4], this molecule returned a Latency of 0.32 min. In the series with KM mice (30 mg/kg), this molecule yielded a Duration of 3.15 min and a Latency of 0.76 min.
